Data published in US10457710B2, “Antimicrobial peptides, their variants and uses” (priority 2015, dated 2019).
Where a SMILES comes first, the peptide text is derived from it. [ ]: non-standard residue; d: D form.

Legend:
Type in all cases: cell-based
[1] = system: clinical strains of K. pneumoniae; experiment: MIC, microdilution, clinical strains; conditions: 0.02% BSA, 0.2% acetic acid
How it was run: (§1)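 MIC = lowest peptide concentration without visual growth after 20–24 h at 37° C. Range 0.125–128 μg/ml, inoculum 5.0×10^5 cfu/ml, microdilution format. Antifungal tests used potato dextrose broth; bacterial tests used MH broth.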

[2] = system: clinical strains of S. aureus; experiment: MIC, microdilution, clinical strains; conditions: 0.02% BSA, 0.2% acetic acid
How it was run: as §1

[3] = system: clinical strains of Proteus mirabilis; experiment: MIC, microdilution, clinical strains; conditions: 0.02% BSA, 0.2% acetic acid
How it was run: as §1

[4] = system: clinical strains of P. aeruginosa; experiment: MIC, microdilution, clinical strains; conditions: 0.02% BSA, 0.2% acetic acid
How it was run: as §1

[5] = system: clinical strains of Serratia marcescens; experiment: MIC, microdilution, clinical strains; conditions: 0.02% BSA, 0.2% acetic acid
How it was run: as §1

[6] = system: clinical strains of E. coli; experiment: MIC, microdilution, clinical strains; conditions: microdilution, Muller Hinton broth-cation adjusted, 0.02% BSA, 0.2% acetic acid
How it was run: as §1

[7] = system: clinical strains of E. cloacae; experiment: MIC, microdilution, clinical strains; conditions: 0.02% BSA, 0.2% acetic acid
How it was run: as §1

[8] = system: clinical strains of S. pneumoniae; experiment: MIC, microdilution, clinical strains; conditions: 0.02% BSA, 0.2% acetic acid
How it was run: as §1

[9] = system: C. quillermondiae; experiment: MIC, clinical yeast strains; conditions: clinical yeast strain 1; D-form peptide; concentrations tested 0.125 to 128 μg/ml
How it was run: as §1

[10] = system: clinical strains of Acinetobacter baumannii; experiment: MIC, microdilution, clinical strains; design: unit: μg/ml; conditions: 0.02% BSA, 0.2% acetic acid
Procedure: Minimum inhibition concetrations (MICs) were determined against Escherichia coli (ATCC 25922), Staphylococcus aureus (ATCC 25923), Klebsiella pneumoniae (ATCC 10031) and Pseudomonas aeruginosa (ATCC 27853). Also clinical strains of E. coli, K. pneumoniae, E. cloacae, P. aeruginosa, Serratia marcescens, Proteus mirabilis, S. pneumoniae, Acinetobacter baumannii, A. johnsonii and S. aureus were used for MICs assays. Additionally, clinical strains of yeast including Candida albicans, C. glabrata, C. parapsilosis and C. quillermondiae were used. The susceptibility of these microorganisms to Chain peptides were determined using micro broth dilution assay. Colonies of the respective microorganism from Muller Hinton (MH) agar plates incubated overnight were suspended in MH broth media and final concentration of microorganism was adjusted to 5.0×10^5 cfu/ml. An aliquot of 10 μl of each Chain peptide, or gentamicin, tetracycline as reference antibiotics were added in differing concentrations along with 90 μl of bacterial suspension to 96 well polypropylene plates and incubated at 37° C. for 20 to 24 hours. Concentrations of Chain peptides and reference antibiotics ranged from 0.125 to 128 μg/ml and the MICs were recorded as the lowest concentration with no visual growth of bacteria. Similarly, antifungal MICs were tested in Potato dextrose broth.
Clinical strains of yeasts including Candida albicans, C. glabrata, C. parapsilosis and C. quillermondiae were also tested with the 12 Chain peptides. The minimum inhibitory concentration (MICs) varied between these peptides and are presented in Tables 4a, 4b, 4c and 5a, 5b, 5c. Peptides Chain 105, 201 and 308 are broad spectrum antimicrobials with MICs between 0.5-32 μg/ml against all the bacteria and yeasts tested, except Serratia marcescens and Proteus mirabilis, against which the MICs were between 64-128 μg/ml. Peptide Chain 306 has narrow spectrum activity against E. coli at 1 μg/ml and for the rest of the bacterial strains at >32 μg/ml (FIG. 10c).

[11] = system: C. parapsilosis; experiment: MIC, clinical yeast strains; conditions: D-form peptide, concentrations tested 0.125 to 128 μg/ml
How it was run: as §1

[12] = system: Candida albicans; experiment: MIC, clinical yeast strains; conditions: D-form peptide, concentrations tested 0.125 to 128 μg/ml
How it was run: as §1

[13] = system: C. glabrata; experiment: MIC, clinical yeast strains; conditions: D-form peptide, concentrations tested 0.125 to 128 μg/ml
How it was run: as §1

`CC[C@@H](C)[C@@H](NC(=O)[C@@H](Cc1c[nH]c2ccccc12)NC(=O)[C@H](N)CCCCN)C(=O)N[C@@H](C(=O)N[C@H](Cc1c[nH]c2ccccc12)C(=O)N[C@H](CCCNC(=N)N)C(=O)N[C@H](Cc1c[nH]c2ccccc12)C(=O)N[C@H](CCCNC(=N)N)C(=O)N[C@H](Cc1ccccc1)C(=O)N[C@H](CCCCN)C(=O)N[C@H](CCCNC(=N)N)C(=O)O)C(C)C` [Chain201D] (H-[dK][dW][dI][dV][dW][dR][dW][dR][dF][dK][dR]-OH) was tested, and the Minimum inhibitory concentration ([1]; Klebsiella pneumoniae strain 1, Muller Hinton broth-cation adjusted) was 2, the Minimum inhibitory concentration ([1]; Klebsiella pneumoniae strain 2, Muller Hinton broth-cation adjusted) was 2 and the Minimum inhibitory concentration ([1]; Klebsiella pneumoniae strain 3, Muller Hinton broth-cation adjusted) was 4. It also gave a Minimum inhibitory concentration ([1]; Klebsiella pneumoniae strain 4, Muller Hinton broth-cation adjusted) of 4, a Minimum inhibitory concentration ([1]; Klebsiella pneumoniae strain 5, Muller Hinton broth-cation adjusted) of 2 and a Minimum inhibitory concentration ([2]; Staphylococcus aureus strain 1, Muller Hinton broth-cation adjusted) of 1. For the same molecule, the Minimum inhibitory concentration ([2]; Staphylococcus aureus strain 2, Muller Hinton broth-cation adjusted) was 1, the Minimum inhibitory concentration ([2]; Staphylococcus aureus strain 3, Muller Hinton broth-cation adjusted) was 1 and the Minimum inhibitory concentration ([2]; Staphylococcus aureus strain 4, Muller Hinton broth-cation adjusted) was 1. For the same molecule, the Minimum inhibitory concentration ([2]; Staphylococcus aureus strain 5, Muller Hinton broth-cation adjusted) was 1, the Minimum inhibitory concentration ([3]; Proteus mirabilis strain 1, Muller Hinton broth-cation adjusted) was greater than 128 and the Minimum inhibitory concentration ([3]; Proteus mirabilis strain 2, Muller Hinton broth-cation adjusted) was 32. For the same molecule, the Minimum inhibitory concentration ([3]; Proteus mirabilis strain 3, Muller Hinton broth-cation adjusted) was 64, the Minimum inhibitory concentration ([3]; Proteus mirabilis strain 4, Muller Hinton broth-cation adjusted) was greater than 128 and the Minimum inhibitory concentration ([3]; Proteus mirabilis strain 5, Muller Hinton broth-cation adjusted) was greater than 128. For the same molecule, the Minimum inhibitory concentration ([4]; Pseudomonas aeruginosa strain 1, Muller Hinton broth-cation adjusted) was 4, the Minimum inhibitory concentration ([4]; Pseudomonas aeruginosa strain 2, Muller Hinton broth-cation adjusted) was 4 and the Minimum inhibitory concentration ([4]; Pseudomonas aeruginosa strain 3, Muller Hinton broth-cation adjusted) was 4. The Minimum inhibitory concentration ([4]; Pseudomonas aeruginosa strain 4, Muller Hinton broth-cation adjusted) was 2, the Minimum inhibitory concentration ([4]; Pseudomonas aeruginosa strain 5, Muller Hinton broth-cation adjusted) was 2 and the Minimum inhibitory concentration ([5]; Serratia marcescens strain 1, Muller Hinton broth-cation adjusted) was 64. It also gave a Minimum inhibitory concentration ([5]; Serratia marcescens strain 2, Muller Hinton broth-cation adjusted) of 64, a Minimum inhibitory concentration ([5]; Serratia marcescens strain 3, Muller Hinton broth-cation adjusted) of 64 and a Minimum inhibitory concentration ([5]; Serratia marcescens strain 4, Muller Hinton broth-cation adjusted) of 64. It also gave a Minimum inhibitory concentration ([5]; Serratia marcescens strain 5, Muller Hinton broth-cation adjusted) of 128, a Minimum inhibitory concentration ([6]; Escherichia coli strain 1) of 16 and a Minimum inhibitory concentration ([6]; Escherichia coli strain 2) of 1. For the same molecule, the Minimum inhibitory concentration ([6]; Escherichia coli strain 3) was 1, the Minimum inhibitory concentration ([6]; Escherichia coli strain 4) was 1 and the Minimum inhibitory concentration ([6]; Escherichia coli strain 5) was 1. It also gave a Minimum inhibitory concentration ([7]; Enterobacter cloacae strain 1, Muller Hinton broth-cation adjusted) of 1, a Minimum inhibitory concentration ([7]; Enterobacter cloacae strain 2, Muller Hinton broth-cation adjusted) of 2 and a Minimum inhibitory concentration ([7]; Enterobacter cloacae strain 3, Muller Hinton broth-cation adjusted) of 2. It also gave a Minimum inhibitory concentration ([7]; Enterobacter cloacae strain 4, Muller Hinton broth-cation adjusted) of 2, a Minimum inhibitory concentration ([7]; Enterobacter cloacae strain 5, Muller Hinton broth-cation adjusted) of 1 and a Minimum inhibitory concentration ([8]; Streptococcus pneumoniae strain 1, Muller Hinton broth-cation adjusted) of 8. For the same molecule, the Minimum inhibitory concentration ([8]; Streptococcus pneumoniae strain 2, Muller Hinton broth-cation adjusted) was 4, the Minimum inhibitory concentration ([8]; Streptococcus pneumoniae strain 3, Muller Hinton broth-cation adjusted) was 2 and the Minimum inhibitory concentration ([8]; Streptococcus pneumoniae strain 4, Muller Hinton broth-cation adjusted) was 4. The Minimum inhibitory concentration ([8]; Streptococcus pneumoniae strain 5, Muller Hinton broth-cation adjusted) was 4, the “Minimum inhibitory concentration, C. quillermondiae strain 1” value [9] was 8 and the Minimum inhibitory concentration ([10]; Acinetobacter baumannii strain 1, Muller Hinton broth-cation adjusted) was 4. It also gave a Minimum inhibitory concentration ([10]; Acinetobacter baumannii strain 2, Muller Hinton broth-cation adjusted) of 4, a Minimum inhibitory concentration ([10]; Acinetobacter baumannii strain 3, Muller Hinton broth-cation adjusted) of 4 and a Minimum inhibitory concentration ([10]; Acinetobacter baumannii strain 4, Muller Hinton broth-cation adjusted) of 4. For the same molecule, the Minimum inhibitory concentration ([10]; Acinetobacter baumannii strain 5, Muller Hinton broth-cation adjusted) was 4, the “Minimum inhibitory concentration, C. parapsilosis strain 1” value ([11]; clinical yeast strain 1) was 8 and the “Minimum inhibitory concentration, C. parapsilosis strain 2” value ([11]; clinical yeast strain 2) was 8. The “Minimum inhibitory concentration, C. parapsilosis strain 3” value ([11]; clinical yeast strain 3) was 8, the “Minimum inhibitory concentration, C. parapsilosis strain 4” value ([11]; clinical yeast strain 4) was 8 and the “Minimum inhibitory concentration, Candida albicans strain 1” value ([12]; clinical yeast strain 1) was 16. For the same molecule, the “Minimum inhibitory concentration, Candida albicans strain 2” value ([12]; clinical yeast strain 2) was 8, the “Minimum inhibitory concentration, Candida albicans strain 3” value ([12]; clinical yeast strain 3) was 8 and the “Minimum inhibitory concentration, Candida albicans strain 4” value ([12]; clinical yeast strain 4) was 16. The “Minimum inhibitory concentration, Candida albicans strain 5” value ([12]; clinical yeast strain 5) was 8, the “Minimum inhibitory concentration, C. glabrata strain 1” value ([13]; clinical yeast strain 1) was 8 and the “Minimum inhibitory concentration, C. glabrata strain 2” value ([13]; clinical yeast strain 2) was 8. For the same molecule, the “Minimum inhibitory concentration, C. glabrata strain 3” value ([13]; clinical yeast strain 3) was 8 and the “Minimum inhibitory concentration, C. glabrata strain 4” value ([13]; clinical yeast strain 4) was 64.
